# Measurements reported in patent US7985753B2, “Substituted pyrazolo[1,5-A]pyrimidines as metabotropic glutamate receptor modulators” (MERZ PHARMA GmbH & Co. KGaA, priority 2006, dated 2011).
# pIC50: −log10 of the molar value.
# Biological target: T1, mGluR5 receptors (Rattus norvegicus, UniProt P31424)
# T1 construct: endogenous in cells; host or cells: primary astrocytes from neocortex of Sprague-Dawley rat pups
# Experiment: Cytosolic calcium studies with astrocytes (astrocyte culture test, FLIPR)
# Type: cell-based
# Details: rat primary astrocytes; L-quisqualate (100 nM); read-out: mGluR5_FLIPRr_rpA IC50
# Description: Primary astrocyte cultures are prepared from cortices of newborn rats as described by Booher and Sensenbrenner (1972, Neurobiology 2(3):97-105). Briefly, Sprague-Dawley rat pups (2-4 d old) are decapitated and neocortices are dissected, disintegrated with a nylon filter (pore size 80 μm) and carefully triturated. The cell suspension is plated on poly-D-lysine pre-coated flasks (Costar, Netherlands) and cultivated in Dulbecco's Modified Eagle's Medium (DMEM, Invitrogen, Germany) supplemented with 10% foetal calf serum (FCS, Sigma, Germany), 4 mM glutamine and 50 μg/ml gentamycin (both Biochrom, Germany) at 37° C. in a humidified atmosphere of 5% CO2/95% air for 7 d with exchanging the medium at day 2 and 6.
# After 7 days in vitro (DIV), cells are shaken overnight at 250 rpm to remove oligodendrocytes and microglia. The next day, astrocytes are rinsed twice with CMF-PBS (calcium- and magnesium-free phosphate buffered saline, Biochrom, Germany), trypsinized and subplated on poly-D-lysine pre-coated 96-well plates (Greiner, Germany) at a density of 40,000 cells/well. 24 h after establishing the secondary culture the astrocytes are rinsed with PBS^++ (phosphate buffered saline, Biochrom, Germany), and fed with astrocyte-defined medium (ADM) consisting of DMEM containing 1×G^5-supplement (Invitrogen, Germany), 0.5 μg/ml heparan sulfate, and 1.5 μg/ml fibronectin (both Sigma, Germany) (Miller et al., (1993) Brain Res. 618(1):175-8). 3 d later the medium is exchanged and the cells incubated for another 2-3 d, so that at the time of experiments astrocytes are 14-15 DIV.
# The increase of cytosolic calcium after stimulation with the mGluR5 agonist L-quisqualate is measured using a fluorometric imaging plate reader (FLIPR) and the Ca-Kit (both Molecular Devices). Prior to addition of agonist or antagonist the medium is aspirated and cells are loaded for 2 h at RT with 150 μl of loading buffer consisting of Ca-sensitive dye reconstituted in sodium chloride (123 mM), potassium chloride (5.4 mM), magnesium chloride (0.8 mM), calcium chloride (1.8 mM), D-glucose (15 mM), and HEPES (20 mM), pH 7.3. Subsequently, plates are transferred to FLIPR to detect calcium increase with the addition of L-quisqualate (100 nM) measured as relative fluorescence units (RFU). If antagonists are tested, these compounds are pre-incubated for 10 minutes at RT before addition of the respective agonist.
# (§1) The fluorescence signal increase after addition of agonist reflects the increase of cytosolic calcium. Inconsistencies in the amount of cells per well are normalised by using the spatial uniformity correction of the FLIPR software. The mean of replicated temporal data (n=3-5) is calculated and used for graphical representation. For the evaluation of the pharmacology, the calcium changes in response to different concentrations of agonist or antagonist are determined using a maximum minus minimum (MaxMin) calculation.
# (§2) All responses (RFU-values) are determined as percentage of control (=maximum response). EC50 and IC50 are calculated according the logistic equation using GraFit 5.0 (Erithacus Software, GB) or Prism 4.0 (GraphPad Software, USA).
# T1 sequence (P31424 21-1203): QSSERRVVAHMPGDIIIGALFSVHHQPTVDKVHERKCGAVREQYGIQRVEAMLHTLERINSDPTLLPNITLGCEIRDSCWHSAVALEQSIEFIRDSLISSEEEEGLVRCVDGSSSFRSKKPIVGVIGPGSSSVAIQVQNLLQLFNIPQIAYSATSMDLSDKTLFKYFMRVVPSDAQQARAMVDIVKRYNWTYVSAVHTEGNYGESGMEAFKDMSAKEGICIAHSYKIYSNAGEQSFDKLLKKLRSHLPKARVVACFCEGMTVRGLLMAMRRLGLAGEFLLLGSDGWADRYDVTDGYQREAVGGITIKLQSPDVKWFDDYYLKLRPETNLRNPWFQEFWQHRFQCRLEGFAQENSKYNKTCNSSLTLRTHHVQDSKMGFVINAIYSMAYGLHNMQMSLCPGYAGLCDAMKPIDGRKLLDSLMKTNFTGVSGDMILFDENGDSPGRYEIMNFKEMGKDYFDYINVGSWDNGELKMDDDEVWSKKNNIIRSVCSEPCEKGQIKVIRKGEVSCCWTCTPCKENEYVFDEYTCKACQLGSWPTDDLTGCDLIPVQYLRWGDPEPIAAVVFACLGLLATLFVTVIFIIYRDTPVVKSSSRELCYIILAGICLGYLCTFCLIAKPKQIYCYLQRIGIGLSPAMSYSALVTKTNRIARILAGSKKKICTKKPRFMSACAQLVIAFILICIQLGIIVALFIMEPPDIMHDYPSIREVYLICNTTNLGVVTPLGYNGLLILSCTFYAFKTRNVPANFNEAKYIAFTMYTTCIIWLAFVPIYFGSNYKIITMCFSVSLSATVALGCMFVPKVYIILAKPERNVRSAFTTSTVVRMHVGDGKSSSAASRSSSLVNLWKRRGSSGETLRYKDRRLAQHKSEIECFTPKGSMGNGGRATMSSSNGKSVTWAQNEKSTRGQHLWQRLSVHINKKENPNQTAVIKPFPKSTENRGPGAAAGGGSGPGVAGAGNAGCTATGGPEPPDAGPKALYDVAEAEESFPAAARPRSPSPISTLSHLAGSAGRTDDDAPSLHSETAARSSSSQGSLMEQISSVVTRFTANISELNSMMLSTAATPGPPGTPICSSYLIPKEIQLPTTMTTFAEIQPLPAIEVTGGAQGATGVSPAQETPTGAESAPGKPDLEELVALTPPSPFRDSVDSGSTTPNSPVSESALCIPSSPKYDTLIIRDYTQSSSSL
row,pIC50,SMILES
1,7.21,"COc1ccc2c(c1)CCN(C(=O)c1cc3ncc(Br)cn3n1)C2C (stereo not drawn) [drawing 449, (6-Bromo-pyrazolo[1,5-a]pyrimidin-2-yl)-(6-methoxy-1-methyl-3,4-dihydro-1H-isoquinolin-2-yl)-methanone]"
2,7.37,"COc1cc2c(cc1O)CCN(C(=O)c1cc3ncc(Br)cn3n1)C2C (stereo not drawn) [drawing 443, 2-[(6-bromopyrazolo[1,5-a]pyrimidin-2-yl)carbonyl]-7-methoxy-1-methyl-1,2,3,4-tetrahydro-6-isoquinolinol]"
3,7.16,"COc1ccc2c(c1)CCN(C(=O)c1cc3ncc(Cl)cn3n1)C2C (stereo not drawn) [drawing 450, (6-Chloro-pyrazolo[1,5-a]pyrimidin-2-yl)-(6-methoxy-1-methyl-3,4-dihydro-1H-isoquinolin-2-yl)-methanone]"
4,7.33,"CC1c2ccc(F)cc2CCN1C(=O)c1cc2ncc(Cl)cn2n1 (stereo not drawn) [drawing 446, (6-Chloro-pyrazolo[1,5-a]pyrimidin-2-yl)-(6-fluoro-1-methyl-3,4-dihydro-1H-isoquinolin-2-yl)-methanone]"
5,7.19,"CC1CN(C(=O)c2cc3ncc(Cl)cn3n2)C(C)c2ccccc21 (stereo not drawn) [drawing 447, (6-Chloro-pyrazolo[1,5-a]pyrimidin-2-yl)-(1,4-dimethyl-3,4-dihydro-1H-isoquinolin-2-yl)-methanone]"
6,7.77,"CC1c2cccc(F)c2CCN1C(=O)c1cc2ncc(Br)cn2n1 (stereo not drawn) [drawing 445, (6-Bromo-pyrazolo[1,5-a]pyrimidin-2-yl)-(5-fluoro-1-methyl-3,4-dihydro-1H-isoquinolin-2-yl)-methanone]"
7,7.08,"CC1CN(C(=O)c2cc3ncc(Br)cn3n2)C(C)c2ccccc21 (stereo not drawn) [drawing 448, (6-Bromo-pyrazolo[1,5-a]pyrimidin-2-yl)-(1,4-dimethyl-3,4-dihydro-1H-isoquinolin-2-yl)-methanone]"
8,7.32,"O=C(c1cc2ncc(Cl)cn2n1)N1CCc2ncc(Br)cc2C1 [drawing 452, (3-Bromo-7,8-dihydro-5H-[1,6]naphthyridin-6-yl)-(6-chloro-pyrazolo[1,5-a]pyrimiddin-2-yl)-methanone]"
9,7.34,"CC1c2cc(F)ccc2CCN1C(=O)c1cc2ncc(Br)cn2n1 (stereo not drawn) [drawing 444, (6-Bromo-pyrazolo[1,5-a]pyrimidin-2-yl)-(7-fluoro-1-methyl-3,4-dihydro-1H-isoquinolin-2-yl)-methanone]"
10,7.19,"CC1c2cccc(Br)c2CCN1C(=O)c1cc2ncc(Cl)cn2n1 (stereo not drawn) [drawing 451, (5-Bromo-1-methyl-3,4-dihydro-1H-isoquinolin-2-yl)-(6-chloro-pyrazolo[1,5-a]pyrimidin-2-yl)-methanone]"

# Biological target: T2, transmembrane allosteric modulatory sites of mGluR5 receptors in cortical membranes (Rattus norvegicus, UniProt P31424)
# T2 construct: from tissue; host or cells: rat brain cortex membranes
# Experiment: [^3H]-MPEP binding assay in rat cortical membranes
# Details: read-out: mGluR5_M_MPEP_r_CTX_IC50
# Description: Male Sprague-Dawley rats (200-250 g) are decapitated and their brains are removed rapidly. The cortex is dissected and homogenized in 20 volumes of ice-cold 0.32 M sucrose using a glass-Teflon homogenizer. The homogenate is centrifuged at 1000×g for 10 minutes. The pellet is discarded and the supernatant centrifuged at 20,000×g for 20 minutes. The resulting pellet is re-suspended in 20 volumes of distilled water and centrifuged for 20 minutes at 8000×g. Then the supernatant and the buffy coat are centrifuged at 48,000×g for 20 minutes in the presence of 50 mM Tris-HCl, pH 8.0. The pellet is then re-suspended and centrifuged two to three more times at 48,000×g for 20 minutes in the presence of 50 mM Tris-HCl, pH 8.0. All centrifugation steps are carried out at 4° C. After resuspension in 5 volumes of 50 mM Tris-HCl, pH 8.0 the membrane suspension is frozen rapidly at −80° C.
# On the day of assay the membranes are thawed and washed four times by resuspension in 50 mM Tris-HCl, pH 8.0 and centrifugation at 48,000×g for 20 minutes and finally re-suspended in 50 mM Tris-HCl, pH 7.4. The amount of protein in the final membrane preparation (500-700 μg/ml) is determined according to the method of Lowry (Lowry O. H. et al. 1951. J. Biol. Chem. 193, 256-275).
# Alternatively, assays are performed with [^3H]-MMPEP (2-(3-methoxyphenylethynyl)-6-methylpyridine hydrochloride) as radioligand. The incubations are continued at room temperature for 60 minutes (equilibrium is achieved under the conditions used). […] Incubations are terminated using a Millipore filter system. The samples are rinsed twice with 4 ml of ice-cold assay buffer over glass fibre filters (Schleicher & Schuell, Germany) under a constant vacuum. Following separation and rinse, the filters are placed into scintillation liquid (5 ml Ultima Gold, Perkin Elmer, Germany) and radioactivity retained on the filters is determined with a conventional liquid scintillation counter (Canberra Packard, Germany).
# T2 sequence (P31424 21-1203): as above
row,pIC50,SMILES
1,7.04,"CC1CN(C(=O)c2cc3ncc(Br)cn3n2)C(C)c2ccccc21 (stereo not drawn) [drawing 458, (6-Bromo-pyrazolo[1,5-a]pyrimidin-2-yl)-(1,4-dimethyl-3,4-dihydro-1H-isoquinolin-2-yl)-methanone]"

# Biological target: metabotropic glutamate receptor (mGluR5) (Homo sapiens, UniProt P41594)
# Experiment: Cytosolic calcium studies with stably transfected cells (FLIPR)
# Type: cell-based
# Parameters: expressed in transfected cells; host or cells: CHO-K1 cells, IPTG-inducible expression
# Details: CHO-K1 cells expressing human mGluR5; agonist L-quisqualic acid; read-out: mGluR5_FLIPR_h_CHO_NAM IC50
# Description: Cytosolic Calcium Studies with Stably Transfected Cells:
# Chinese hamster ovary cells (CHO-K1 cells), stably transfected for inducible expression of a human metabotropic glutamate receptor mGluR5, are seeded into black clear bottom 96 well plates at a density of 35.000 cells per well. The standard growth medium used (Dulbecco's modified Eagle Medium, DMEM plus L-proline) contains the appropriate inducer isopropyl-β-D-thiogalactopyranosid (IPTG) to achieve optimal receptor expression. One day after seeding the growth medium is exchanged for reconstituted Ca-Kit (Molecular Devices, USA) and incubated for one hour. Ca-Kit is reconstituted in an assay buffer containing 20 mM HEPES pH 7.4, glutamic-pyruvate transaminase, pyridoxal phosphate and sodium pyruvate in Hank's balanced salt solution (HBBS). Agonistic compounds to the receptor elicit increases in cytosolic calcium which can be measured as increases in fluorescence signals by use of a fluorescence imaging plate reader (Molecular Devices).
# as §1, §2
# Sequence of metabotropic glutamate receptor (mGluR5) (P41594 21-1212): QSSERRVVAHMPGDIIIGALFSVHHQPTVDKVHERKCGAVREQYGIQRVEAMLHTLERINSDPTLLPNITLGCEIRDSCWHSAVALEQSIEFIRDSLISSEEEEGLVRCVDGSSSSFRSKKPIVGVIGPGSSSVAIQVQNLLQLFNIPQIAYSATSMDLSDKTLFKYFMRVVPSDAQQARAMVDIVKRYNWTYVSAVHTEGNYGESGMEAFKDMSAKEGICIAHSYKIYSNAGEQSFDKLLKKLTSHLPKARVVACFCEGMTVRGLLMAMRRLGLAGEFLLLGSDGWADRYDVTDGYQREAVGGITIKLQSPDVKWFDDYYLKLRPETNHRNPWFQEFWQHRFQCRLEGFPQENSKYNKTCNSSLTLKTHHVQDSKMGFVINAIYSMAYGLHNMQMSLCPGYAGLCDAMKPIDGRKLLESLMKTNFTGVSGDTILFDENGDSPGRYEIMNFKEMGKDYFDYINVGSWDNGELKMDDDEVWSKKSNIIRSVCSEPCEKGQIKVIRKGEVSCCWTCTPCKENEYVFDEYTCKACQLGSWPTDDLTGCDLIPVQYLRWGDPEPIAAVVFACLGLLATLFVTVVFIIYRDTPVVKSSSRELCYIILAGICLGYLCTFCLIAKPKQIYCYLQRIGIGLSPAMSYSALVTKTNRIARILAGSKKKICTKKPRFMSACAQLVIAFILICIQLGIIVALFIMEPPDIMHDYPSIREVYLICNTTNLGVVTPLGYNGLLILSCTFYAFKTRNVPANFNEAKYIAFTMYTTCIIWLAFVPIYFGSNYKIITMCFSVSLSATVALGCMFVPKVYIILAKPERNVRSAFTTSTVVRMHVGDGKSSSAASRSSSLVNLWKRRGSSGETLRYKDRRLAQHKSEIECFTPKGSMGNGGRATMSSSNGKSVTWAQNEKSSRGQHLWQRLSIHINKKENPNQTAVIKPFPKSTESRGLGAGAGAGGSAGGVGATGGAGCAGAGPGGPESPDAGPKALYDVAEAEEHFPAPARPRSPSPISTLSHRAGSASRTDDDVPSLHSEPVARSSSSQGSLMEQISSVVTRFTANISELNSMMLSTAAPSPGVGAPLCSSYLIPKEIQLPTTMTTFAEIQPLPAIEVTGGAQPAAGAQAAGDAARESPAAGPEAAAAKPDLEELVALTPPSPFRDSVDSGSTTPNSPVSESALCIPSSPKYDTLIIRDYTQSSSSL
row,SMILES,pIC50
1,"COc1ccc2c(c1)CCN(C(=O)c1cc3ncc(Cl)cn3n1)C2C (stereo not drawn) [drawing 440, (6-Chloro-pyrazolo[1,5-a]pyrimidin-2-yl)-(6-methoxy-1-methyl-3,4-dihydro-1H-isoquinolin-2-yl)-methanone]",6.81
2,"CC1c2cc(F)ccc2CCN1C(=O)c1cc2ncc(Br)cn2n1 (stereo not drawn) [drawing 434, (6-Bromo-pyrazolo[1,5-a]pyrimidin-2-yl)-(7-fluoro-1-methyl-3,4-dihydro-1H-isoquinolin-2-yl)-methanone]",7.36
3,"CC1CN(C(=O)c2cc3ncc(Cl)cn3n2)C(C)c2ccccc21 (stereo not drawn) [drawing 437, (6-Chloro-pyrazolo[1,5-a]pyrimidin-2-yl)-(1,4-dimethyl-3,4-dihydro-1H-isoquinolin-2-yl)-methanone]",7.00

# More lines, now with the values ahead:
row,pIC50,SMILES
1,7.18,"CC1c2ccc(F)cc2CCN1C(=O)c1cc2ncc(Cl)cn2n1 (stereo not drawn) [drawing 436, (6-Chloro-pyrazolo[1,5-a]pyrimidin-2-yl)-(6-fluoro-1-methyl-3,4-dihydro-1H-isoquinolin-2-yl)-methanone]"
2,6.75,"CC1c2cccc(Br)c2CCN1C(=O)c1cc2ncc(Cl)cn2n1 (stereo not drawn) [drawing 441, (5-Bromo-1-methyl-3,4-dihydro-1H-isoquinolin-2-yl)-(6-chloro-pyrazolo[1,5-a]pyrimidin-2-yl)-methanone]"
3,6.57,"COc1cc2c(cc1O)CCN(C(=O)c1cc3ncc(Br)cn3n1)C2C (stereo not drawn) [Example 1, (6-Bromo-pyrazolo[1,5-a]pyrimidin-2-yl)-(6-hydroxy-7-methoxy-1-methyl-3,4-dihydro-1H-isoquinolin-2-yl)-methanone]"
4,7.25,"CC1c2cccc(F)c2CCN1C(=O)c1cc2ncc(Br)cn2n1 (stereo not drawn) [drawing 435, (6-Bromo-pyrazolo[1,5-a]pyrimidin-2-yl)-(5-fluoro-1-methyl-3,4-dihydro-1H-isoquinolin-2-yl)-methanone]"
5,6.79,"CC1CN(C(=O)c2cc3ncc(Br)cn3n2)C(C)c2ccccc21 (stereo not drawn) [drawing 438, (6-Bromo-pyrazolo[1,5-a]pyrimidin-2-yl)-(1,4-dimethyl-3,4-dihydro-1H-isoquinolin-2-yl)-methanone]"
6,6.78,"O=C(c1cc2ncc(Cl)cn2n1)N1CCc2ncc(Br)cc2C1 [drawing 442, (3-Bromo-7,8-dihydro-5H-[1,6]naphthyridin-6-yl)-(6-chloro-pyrazolo[1,5-a]pyrrimidin-2-yl)-methanone]"
7,6.80,"COc1ccc2c(c1)CCN(C(=O)c1cc3ncc(Br)cn3n1)C2C (stereo not drawn) [drawing 439, (6-Bromo-pyrazolo[1,5-a]pyrimidin-2-yl)-(6-methoxy-1-methyl-3,4-dihydro-1H-isoquinolin-2-yl)-methanone]"
